From patent publication US20030095933A1, “Anti-aging skin care composition and uses thereof” (priority 2001, published 2003)

How the values were obtained:
[1] = system: facial skin of a human subject; assay: Topical application of aqueous solution to facial skin of a human subject before bedtime
Experimental: Topical Application of an Aqueous Solution of Vitamin C. A one gram tablet of Vitamin C (Ascorbic acid; GNC Brand, GNC, Inc.) was dissolved to completion in 1 tablespoon of water. The resulting solution was applied to the facial skin of a human subject immediately before bedtime.
Direct Comparisons of Aqueous Vitamin C Solution to Aqueous Vitamin C Solutions Containing Additional Ingredients. Several direct comparisons were performed to determine whether the addition of additional components could improve the results observed with Vitamin C alone. In the first of these tests, an aqueous solution comprising Vitamin C alone (3 g) was applied to one side of the subject's face immediately before bedtime, while an aqueous solution comprising 3 g of Vitamin C and 600 mg of N-acetyl-cysteine (GNC, Inc.) was applied to the other half of the subject's face at the same time.
A second comparison was then performed. In this study, an aqueous solution comprising Vitamin C (3 g) and Vitamin B5 (500 mg, obtained from GNC, Inc.) was applied to one side of the subject's face immediately before bedtime, while an aqueous solution comprising 3 g of Vitamin C, 600 mg of N-acetyl-cysteine and 10 mg zinc (GNC, Inc.) was applied to the other half of the subject's face at the same time.
Tablets containing 3 g of Vitamin C, 100 mg of Vitamin B1, 500 mg of Vitamin B5 and 500 mg of N-acetyl-cysteine, all obtained from obtained from GNC, Inc., were ground into a powder and mixed together. The mixture was then added to one tablespoon of water and allowed to dissolve to completion, which took approximately 10 hrs. The resulting solution was applied to the facial skin of a human subject immediately before bedtime.
Optimization of ranges for each of the components was determined. For example, the amount of Vitamin C present in the composition described above in Example 2 was varied from 0 g to 5 g.
In an attempt to reduce the slight irritation caused by application of the anti-aging skin care composition and to enhance its effects on fine lines and wrinkles, 100 mg of lipoic acid was added to the anti-aging skin care composition comprising 3 g of Vitamin C, 100 mg of Vitamin B1, 500 mg of Vitamin B5 and 500 mg of N-acetyl-cysteine. […] The resulting solution was again applied to the facial skin of a human subject immediately before bedtime.

[2] = Miscibility of Vitamin E with the aqueous Vitamin C solution; format: physicochemical; details: oils and powders containing Vitamin E
Experimental: Addition of Vitamin E Prevented by Poor Solubility. […] Thus, no further studies of the effects of the addition of Vitamin E to the various anti-aging skin care compositions described herein were performed.

Compound | redness or burning of the facial skin upon waking ([1]; after approximately 6-8 hrs of sleep) | appearance of the facial skin upon waking ([1]; after approximately 6-8 hrs of sleep, overnight application) | sensation upon initial contact with the facial skin ([1]; immediately after application, before the solution dried) | redness and irritation following subsequent applications ([1]; subsequent applications, dose of Vitamin C increased to 2 g and up to 5 g) | miscibility with the aqueous solution containing Vitamin C [2]
O=C1O[C@H]([C@@H](O)CO)C(O)=C1O [Vitamin C, Ascorbic acid] | slight redness of the facial skin | noticeably improved | slight burning sensation | subsided greatly | –
Vitamin E | – | – | – | – | neither oils nor powders containing Vitamin E were miscible
